Like-named read-outs stand apart in the source and are kept apart here. Square brackets hold non-standard residues; d marks the D form. dPhe(4-Cl) = N[C@H](Cc1ccc(Cl)cc1)C(=O)O; d2Nal = N[C@H](Cc1ccc2ccccc2c1)C(=O)O; dCit = NC(=O)NCCC[C@@H](N)C(=O)O; d3Pal = N[C@H](Cc1cccnc1)C(=O)O

The subject of series [1] is membrane receptors of human breast cancer cells. Put plainly: Receptor binding, human breast cancer cell membranes (125I-[D-Trp6]LHRH as labelled ligand). To be noted: 125I-[D-Trp]6 LHRH labelled ligand; for Affinity Constant Ka 1: NB = no binding. As to the method:
Affinity of peptides to rat pituitary and human breast cancer cell membranes is determined by using labelled LHRH and [D-Trp^6 ]LHRH. The assay is carried out similarly to that described by T. Kadar et al., Proc. Natl. Acad. Sci. USA, 85, 890-894 (1988) and M. Fekete et al., Endocrinology, 124, 946-955 (1989).

Series [2] concerns perfused rat pituitary cell system (LH response to LH-RH). Description: LH-RH inhibiting activity in superfused rat pituitary cell system. Type of series: cell-based. Here is the method: Immediately after that, a mixture containing the same concentration of peptide and 3 nM LHRH is administered for 3 min. This was followed by four consecutive infusions of 3 nM LHRH for 3 min (1 ml perfusate) at 30 min intervals (30, 60, 90, 120 min). LH content of the 1 ml fractions collected is determined by radioimmunoassay (RIA).

The test system of series [3] is LH and FSH levels. Description: In vivo effect on LH and FSH levels in castrated male rats. As to conditions: s.c.; for inhibition of LH levels forty-eight hours after injection: dose of 5 μg; for duration of significant decrease in the LH levels: p<0.01. Also on record: species or system rat. Here is the method: (d) In vivo effect on LH and FSH levels was measured as described by L. Bokser et al. (Proc. Natl. Acad. Sci. US, accepted for publication.) Castrated male rats weighing 350-410 grams anaesthetized with urethane were injected subcutaneously with Peptide 7 and 8 in doses of 1.25 μg and 5.0 μg. Blood samples were taken from the jugular vein before injection and 1, 2, 3, 4, 6, 24 and 48 hours after the administration of peptides. Control animals were injected only with saline. LH and FSH levels were determined by specific RIAs.

Series [4] concerns Dunning R3327 prostate cancer. Description: In vivo antitumor effect, Dunning R3327 prostate cancer in rats. To be noted: for Size of tumor, treated group: 25 μg/day, ± SD. Also on record: species or system rat. Here is the method:
Inhibition of growth of cancerous tumors in rats with compounds of Formula I was tested as described by Szende et al. (J. Natl. Cancer Inst., 82, 513-517, 1990; Szende et al., Cancer Research), 50, 3716-3721, 1990) by A. V. Schally and T. Redding (Proc. Natl. Acad. Sci. US, 84, 7279-7282, 1987), and by E. Korkut et al. (Proc. Natl. Acad. Sci. US, accepted for publication). Peptide 8 was dissolved in 45% aqueous propylene-glycol and was administered at a dose of 25 μg/day from an ALZET minipump to male rats bearing the androgen-dependent well-differentiated R3327 Dunning rat prostate adenocarcinoma. Tumors were measured weekly with microcalipers and tumor volumes were calculated. Duration of the treatment was 8 weeks, changing the minipumps at the end of the 4th week.

Series [5] deals with LHRH. As to conditions: prior art; cited from earlier work.
The conditions of series [6]: cited from earlier work.
Where [7] appears, read: antagonist to LH-RH ratio 1:1, 0 min.
Setting [8] is: antagonist to LH-RH ratio 1:1, 30 min.
The mark [9] stands for this setting: antagonist to LH-RH ratio 1:1, 60 min.
[10] abbreviates: antagonist to LH-RH ratio 1:1, 90 min.
The mark [11] stands for this setting: antagonist to LH-RH ratio 3:1, 0 min.
Where [12] appears, read: antagonist to LH-RH ratio 3:1, 30 min.
Where [13] appears, read: antagonist to LH-RH ratio 3:1, 60 min.
[14] abbreviates: antagonist to LH-RH ratio 3:1, 90 min.
Setting [15] is: rats bearing Dunning R3327H prostate cancer.

As to “Ac-D-Nal(2)-D-Phe(4Cl)-D-Pal(3)-Ser-Tyr-D-Lys[A2 pr(Ac)2 ]-Leu-Arg-Pro-D-Ala-NH2 [Peptide 8]”, in series [1], the “Affinity Constant Ka 2” value was 6.16 µM⁻¹. Also, in series [1], the “Affinity Constant Ka 1” value was 1.57 nM⁻¹. The “% inhibition of LH response” value turned out to be 64% in series [2] (setting [7]); 39% in series [2] (setting [8]); 27% in series [2] (setting [9]); 22% in series [2] (setting [10]); 99% in series [2] (setting [11]); 66% in series [2] (setting [12]). Besides, the “% inhibition of LH response” value is given as 47% in series [2] (setting [13]) and 37% in series [2] (setting [14]). For the same substance, the “activity on LH levels forty-eight hours after injection” value in series [3] (dose of 1.25 μg, 48 hours, p<0.05) is recorded as “active”. Further, the “inhibition of LH levels forty-eight hours after injection” value in series [3] (48 hours, p<0.05) was “significant inhibition”. Moreover, the “duration of significant decrease in the LH levels” value in series [3] was “more than 24 hours”. The “Size of tumor, treated group” value turned out to be 4001 ± 1617 mm^3 in series [4] (week 0); 5459 ± 1863 mm^3 in series [4] (week 1); 5892 ± 1938 mm^3 in series [4] (week 2); 6357 ± 2327 mm^3 in series [4] (week 3); 6237 ± 2974 mm^3 in series [4] (week 4, p<0.05); 7447 ± 3481 mm^3 in series [4] (week 5, p<0.05). In addition, the “Size of tumor, treated group” value in series [4] (week 6, p<0.05) came out at 8038 ± 4374 mm^3; in series [4] (week 7, p<0.01), 8129 ± 3525 mm^3. In series [4] (Dunning R3327H prostate cancer, rats, control group 12 days), this substance displayed a Tumor doubling time of 42 days. Further, the “body weight during the treatment” value in series [4] (setting [15]) was “did not change”. In addition, the “weight of testis, seminal vesicles and ventral prostate” value in series [4] (setting [15]) was “greatly reduced”.
As for “Ac-[d2Nal][dPhe(4-Cl)][d3Pal]SY[dCit]LRP[dA]-NH2”, the “LHRH antagonist / ovulation inhibition potency” value in series [5] is listed as “high inhibitory effect”. Further, the side effects result in series [6] (prior art) was “no edematogenic and anaphylactoid side effects”.
For the substance “[Ac-D-Nal(2)^1,D-Phe(4Cl)^2,D-Trp^3,D-hArg(Et)2^6,D-Ala^10 ] [Detirelix]”, the “LHRH antagonist / ovulation inhibition potency” value in series [5] is reported as “powerful antagonist”. In addition, the side effects result in series [6] (in vivo) is “hypotensive and bradycardic side effect”.
Take “Ac-D-Nal(2)-D-Phe(4Cl)-D-Pal(3)-Ser-Tyr-D-Lys[A2 pr(Car)2 ]-Leu-Arg-Pro-D-Ala-NH2 [Peptide 7]”: in series [1], the “Affinity Constant Ka 2” value worked out at 5.72 µM⁻¹. For the same substance, in series [1], the “Affinity Constant Ka 1” value is 6.27 nM⁻¹. The “% inhibition of LH response” value in series [2] (setting [7]) came to 57%; in series [2] (setting [8]), 51%; in series [2] (setting [9]), 45%; in series [2] (setting [10]), 41%; in series [2] (setting [11]), 96%; in series [2] (setting [12]) it was 78%. Further, the “% inhibition of LH response” value in series [2] (setting [13]) was 70%; in series [2] (setting [14]) it was 58%. The “inhibition of LH levels forty-eight hours after injection” value in series [3] (48 hours, p<0.05) is recorded as “significant inhibition”. For the same substance, in series [3], the “duration of significant decrease in the LH levels” value was “more than 24 hours”.

These data come from patent US5171835A, “LHRH antagonists” (The Administrators of the Tulane Educational Fund, priority 1991, dated 1992).
